# Data: patent publication US20150329896A1, “N-END RULE PROTEASE ACTIVITY […] AND USES THEREOF” (priority 2010, published 2015)
# Peptide text beside a SMILES is read from it. * marks the point of attachment. Cbz = O=C(OCc1ccccc1)*
# Tested on: proteasome
# Assay type: cell-based
smiles,measurement,value
CC(C)C[C@@H](C=O)NC(=O)[C@H](CC(C)C)NC(=O)[C@H](CC(C)C)NC(=O)OCc1ccccc1 [MG132] (Cbz-Leu-Leu-Leu-aldehyde),level of C-terminal (P9-luciferase) fragment produced by BoNT/A proteolysis,accumulated
